Measured values as given in PubChem BioAssay (NCI).
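Growth conditions: 96-well plates. Treatment: test compound, 48 hours, 5 concentrations. Analysis: linear interpolation between bracketing concentrations; unreached endpoints set to highest concentration. GI50 = concentration required for 50% inhibition of growth. TGI marks complete inhibition of growth.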

How the values were obtained:
Assay in all cases: NCI-60 cell line screen, 48 h
COLO 205 colon = test system: COLO 205 colon
DMS 273 small cell lung = test system: DMS 273 small cell lung
HCC-2998 colon = test system: HCC-2998 colon
HOP-62 NSCLC = test system: HOP-62 NSCLC
HT29 colon = test system: HT29 colon
M14 melanoma = test system: M14 melanoma
MALME-3M melanoma = test system: MALME-3M melanoma
OVCAR-8 ovarian = test system: OVCAR-8 ovarian
SF-268 CNS = test system: SF-268 CNS
U251 CNS = test system: U251 CNS

| Compound | TGI (COLO 205 colon) | TGI (DMS 273 small cell lung) | TGI (HCC-2998 colon) | TGI (HOP-62 NSCLC) | TGI (HT29 colon) | TGI (M14 melanoma) | TGI (MALME-3M melanoma) | TGI (OVCAR-8 ovarian) | TGI (SF-268 CNS) | TGI (U251 CNS) | GI50 (COLO 205 colon) | GI50 (DMS 273 small cell lung) | GI50 (HCC-2998 colon) | GI50 (HOP-62 NSCLC) | GI50 (HT29 colon) | GI50 (M14 melanoma) | GI50 (MALME-3M melanoma) | GI50 (OVCAR-8 ovarian) | GI50 (SF-268 CNS) | GI50 (U251 CNS) |
| --- | --- | --- | --- | --- | --- | --- | --- | --- | --- | --- | --- | --- | --- | --- | --- | --- | --- | --- | --- | --- |
| CCOC(=O)N1C2C=C(C)C(C3C(C)C(=O)N31)N(C(=O)c1ccccc1)O2 (stereo not given) | > 100 µM | > 100 µM | > 100 µM | > 100 µM | > 100 µM | > 100 µM | > 100 µM | > 100 µM | > 100 µM | > 100 µM |  |  |  |  |  |  |  |  |  |  |
| CN(C)CCNC(=O)c1ccc(Cl)c2c(Nc3ccc(S(N)(=O)=O)cc3)c3ccccc3nc12 | 2.15 µM | 8.09 µM | 14.8 µM | 21.6 µM | 6.41 µM | 10.7 µM | 12.5 µM | 6.84 µM | 13.8 µM | 14.1 µM |  |  |  |  |  |  |  |  |  |  |
| CC(C)=CC(=O)CC(=O)C(=O)Nc1ccc(Cl)c(Cl)c1 | > 100 µM | > 100 µM | > 100 µM | > 100 µM | > 100 µM | > 100 µM | > 100 µM | > 100 µM | > 100 µM | > 100 µM |  |  |  |  |  |  |  |  |  |  |
| O=c1[nH]cc(OCC(F)(F)F)c(=O)[nH]1 | > 100 µM | > 100 µM | > 100 µM | > 100 µM | > 100 µM | > 100 µM | > 100 µM | > 100 µM | > 100 µM | > 100 µM |  |  |  |  |  |  |  |  |  |  |
| Cc1cccc(C(C)(C)C)c1NC(=O)C(=O)C(c1cnc2ccccc2n1)[N+](=O)[O-] (stereo not given) | > 100 µM | > 100 µM | > 100 µM | > 100 µM | > 100 µM | > 100 µM | > 100 µM | > 100 µM | > 100 µM | > 100 µM |  |  |  |  |  |  |  |  |  |  |
| CCSc1nc(COC(=O)NC)c(COC(=O)NC)n1C | > 85.1 µM | > 100 µM | > 100 µM | > 100 µM | > 100 µM | > 83 µM | > 100 µM | > 100 µM | > 100 µM | > 100 µM |  |  |  |  |  |  |  |  |  |  |
| CC(=O)NC(CCCN(Cc1ccccc1)C(=O)N(CCCl)N=O)C(=O)NCc1ccccc1 (stereo not given) | > 100 µM | > 100 µM | > 100 µM | 46.3 µM | > 100 µM | > 100 µM | > 75.6 µM | > 100 µM | > 100 µM | > 100 µM |  |  |  |  |  |  |  |  |  |  |
| COc1cc(Oc2c(O)c(C)c(OC)c(C(C)=O)c2O)c(C(C)=O)c(O)c1C | > 100 µM | > 100 µM | > 100 µM | 83.1 µM | > 100 µM | > 100 µM | > 100 µM | > 100 µM | > 100 µM | > 100 µM |  |  |  |  |  |  |  |  |  |  |
| O=C1C(=O)N(C2C3CC4CC(C3)CC2C4)C(=O)C(=O)C1c1nc2ccccc2o1 (stereo not given) | > 100 µM | > 100 µM | > 100 µM | > 100 µM | 49.9 µM | > 100 µM | > 100 µM | > 100 µM | > 100 µM | > 100 µM |  |  |  |  |  |  |  |  |  |  |
| C=CCc1ccc(O)c(-c2cc(C3Oc4c(-c5cc(CC=C)ccc5O)cc(O)cc4[C@@H]3CO)ccc2O)c1 (stereo not given in full) | > 100 µM | 44.5 µM | 68.7 µM | 75 µM | 79.3 µM | > 100 µM | > 100 µM | > 100 µM | 82.5 µM | 68.7 µM |  |  |  |  |  |  |  |  |  |  |
| CC(=O)C1=C([O-])C(C)OC1=O.CC(=O)C1=C([O-])C(C)OC1=O.[NH-]C1CCCC[C@H]1[NH-].[Pt+4] (stereo not given) | > 100 µM | > 100 µM | > 100 µM | > 100 µM | > 100 µM | > 100 µM | > 100 µM | > 100 µM | > 100 µM | > 100 µM | 35.1 µM | 44.9 µM | > 100 µM | > 100 µM | 63.3 µM | 85.3 µM | 48 µM | > 100 µM | > 100 µM | > 100 µM |
| O=C1CC2C(=O)N(Cc3ccccc3)C1C(S(=O)(=O)c1ccccc1)C2S(=O)(=O)c1ccccc1 (stereo not given) | 3.18 µM | 18.6 µM | 20.7 µM | 36.9 µM | 5.1 µM | 4.22 µM | 3.87 µM | 5.19 µM | 12.1 µM | 8.61 µM |  |  |  |  |  |  |  |  |  |  |
| O=C1c2ccccc2C(=O)C1C(c1ccc([N+](=O)[O-])cc1)C1C(=O)c2ccccc2C1=O | > 100 µM | > 100 µM | > 100 µM | > 100 µM | > 100 µM | > 100 µM | > 100 µM | 72.8 µM | 73.6 µM | > 100 µM |  |  |  |  |  |  |  |  |  |  |
